These results are taken from patent US8940730B2, “Methods and compositions of treating a Flaviviridae family viral infection” (The Board of Trustees of the Leland Stanford Junior …, priority 2007, dated 2015).

A word on the IC50: it is the concentration at which inhibition is half-maximal. Read a high IC50 as lower potency.

The test system of one data set is Huh7 cell line. Put plainly: MTT assay for HCV replicon reporter cell lines (cell toxicity). In kind it is cell-based. Conditions: Homo sapiens, Huh-7; cell toxicity, MTT, top concentration 25 μM; read-out: Cell Viability EC50.
The target of another data set is T1, hERG channel (Homo sapiens, UniProt Q12809).
T1 construct: host or cells: CHO (Chinese Hamster Ovary), stably transfected
T1 sequence (Q12809 whole entry): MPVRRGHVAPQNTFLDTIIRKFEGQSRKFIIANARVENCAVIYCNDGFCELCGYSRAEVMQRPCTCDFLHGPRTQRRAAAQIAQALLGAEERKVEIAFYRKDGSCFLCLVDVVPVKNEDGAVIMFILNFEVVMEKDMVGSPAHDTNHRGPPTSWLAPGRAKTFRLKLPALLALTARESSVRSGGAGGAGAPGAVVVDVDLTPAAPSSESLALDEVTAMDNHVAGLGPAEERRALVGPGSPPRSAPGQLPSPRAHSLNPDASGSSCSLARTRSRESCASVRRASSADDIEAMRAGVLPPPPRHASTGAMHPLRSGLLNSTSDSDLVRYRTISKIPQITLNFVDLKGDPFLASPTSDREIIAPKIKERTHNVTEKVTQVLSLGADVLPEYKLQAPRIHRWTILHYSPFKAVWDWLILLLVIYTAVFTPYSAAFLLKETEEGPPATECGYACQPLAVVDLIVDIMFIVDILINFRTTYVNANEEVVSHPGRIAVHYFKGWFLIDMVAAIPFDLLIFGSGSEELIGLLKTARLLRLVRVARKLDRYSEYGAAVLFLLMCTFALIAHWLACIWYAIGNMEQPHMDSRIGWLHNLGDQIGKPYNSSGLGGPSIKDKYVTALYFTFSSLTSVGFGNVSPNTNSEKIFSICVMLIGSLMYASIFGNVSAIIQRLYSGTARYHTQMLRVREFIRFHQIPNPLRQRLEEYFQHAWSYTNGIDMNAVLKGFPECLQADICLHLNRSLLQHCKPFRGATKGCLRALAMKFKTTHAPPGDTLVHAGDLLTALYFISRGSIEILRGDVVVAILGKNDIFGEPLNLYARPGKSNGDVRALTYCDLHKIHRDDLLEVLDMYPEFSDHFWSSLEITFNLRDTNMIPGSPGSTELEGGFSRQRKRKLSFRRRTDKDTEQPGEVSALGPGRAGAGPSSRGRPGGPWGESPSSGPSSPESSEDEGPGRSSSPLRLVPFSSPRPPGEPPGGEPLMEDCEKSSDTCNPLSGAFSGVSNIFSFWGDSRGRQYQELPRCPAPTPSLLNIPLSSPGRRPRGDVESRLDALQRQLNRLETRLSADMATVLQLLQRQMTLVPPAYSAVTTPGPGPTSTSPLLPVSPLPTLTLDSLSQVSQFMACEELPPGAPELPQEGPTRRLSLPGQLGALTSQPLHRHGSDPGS
Put plainly: HERG channel assay (whole cell patch clamp, CHO cells). In kind it is cell-based. The settings on record: CHO cells expressing hERG, tail current. As to the method:
Solutions: For electrophysiological recordings, the following solutions were used. External Solution: 2 mM CaCl2; 2 mM MgCl2; 4 mM KCl; 150 mM NaCl; 10 mM Glucose; 10 mM HEPES; 310-320 mOsm; pH 7.4 (adjusted with 1M NaOH). Internal Solution: 140 mM KCl; 10 mM MgCl2; 6 mM EGTA; 5 mM HEPESNa; […]; 300-320 mOsm; pH 7.25 (adjusted with 1M KOH).
Next, 1 μM cisapride (positive control) was added.
Data Analysis: Data analysis was performed using DataXpress (Axon Instruments), Clampfit (Axon Instruments) and Origin (Originlab Corporation) software.
In addition, activity against hERG potassium channel was tested on representative compounds. […] Compounds having a structure similar to that of EBP288 (compounds that contain, in R3, an N-attached heterocycle where substitutions adjacent to the nitrogen are small) should have a similar activity in this assay. […] Compounds having a structure similar to the aforementioned compound (compounds that contain, in R3, a C-attached heterocycle where heteroatom is acylated N) should have a similar activity in this assay. Generally, compounds that show no or only low activity in the hERG assay are preferred.
On the technique in general: The patch-clamp technique gives a direct electrical read-out from membranes.

Another data set concerns Huh7.5 cells. Conditions: human, 3 days. On the procedure: (§1) 1) Wash cells once with PBS, trypsinize. […] Mix twice by pipeting. […] Make a common stock from all tubes. […] 15) Incubate for 24 hr before treatment.
(§2) 3) Repeat daily for 2 more days.
1) Alamar blue assay—a) Include medium for background subtraction (and also for seeing change in color easily). b) Aspirate medium. c) Make a stock of medium plus 10% Alamar blue. Total volume per well is 100 μl. d) Incubate for 2-2.5 hrs at 37° C. (or until there is a color change). c) Read plates at flex station.

For another data set, the system named is HCV 1b RNA replicon. Briefly: Luciferase assay for HCV genotype 1b replicon reporter cell lines. The settings on record: Hepatitis C virus, Huh-7, 48 h, read-out: 1b EC50, 1b replicon, Huh7, 48 hours, top concentration 25 μM. In general terms: In antiviral work, replicon cells carry a viral genome segment that copies itself.
For data set [1], the system named is HCV genotype 2a infectious clone. Put plainly: HCV genotype 2a infectious clone assay (Renilla luciferase). Type of data set: cell-based. Conditions: Hepatitis C virus, read-out: 2a (% activity @ 5 μM), 5 μM; % replication activity of control with no test compound. On the procedure:
The assays in parts A and B were used to generate the genotype 1b inhibitory activity and related cell toxicity (viability) data supported herein. This assay has been used to generate the genotype 2a inhibitory activity data supported herein.
as §1, §2

Consider `Clc1ccc(Cn2nc(OCCCN3CCCC3c3ccccc3)c3ccccc32)cc1` (stereo not shown) [EBP387], for which the EC50 with Huh7 cell line was above 25 µM; in the data set with HCV 1b RNA replicon it was 6.4 µM. This compound also registered an IC50 against hERG channel of 3.3 µM. Moreover, in the data set with Huh7.5 cells, the “2a cell viability (@ 5 μM)” value was found to be 100%. The activity at 5 µM in data set [1] was determined as 35%.

Regarding `O[C@@H]1CCN(CCCOc2nn(Cc3ccc(Cl)cc3)c3ccccc23)C1` [EBP393], the EC50 in the data set on Huh7 cell line is above 25 µM; in the data set on HCV 1b RNA replicon it was 4.5 µM. Besides, it took 0.9 µM to reach half-maximal inhibition on hERG channel (IC50). In addition, the “2a cell viability (@ 5 μM)” value in the data set with Huh7.5 cells is reported as 100%. Besides, the activity at 5 µM in data set [1] was determined as 42%.
